In patent publication US11447495B2, “Substituted benzo[f]imidazo[1,5-a][1,4]diazepines as GABA(a) receptor modulators” (priority 2016, dated 2022):

Test system: IL-17, TNFα, IL-4
Assay: Lung cytokine levels by cytometric bead array
Format: in vivo
Settings: ova s/c mice
Text: The change of cytokine expression caused by compounds may be investigated in the lung of Ova S/C mice. Therefore, lungs of treated and non-treated asthmatic mice may be harvested, homogenized and cleared by centrifugation. Cytokines may be identified and quantified with specific antibodies and flow cytometry.
Anti-inflammatory properties of compounds in respect to cytokine production were investigated after the AHR measurement by harvesting the lungs of treated and non-treated Ova S/C mice (N=10). Whole lungs were homogenized in 200 μL of T-PER® tissue protein extraction reagent (Thermo Fisher Scientific Inc., Rockford, Ill.) containing 1× protease inhibitor cocktail using a hand-held tissue homogenizer. Homogenized lung samples were centrifuged at 10,000 RPM for 5 minutes to pellet cell/tissue debris. Tissue supernatant was collected for cytokine analysis using BD cytometric bead array mouse Th1/Th2/Th17 cytokine kit (BD Biosciences, San Jose, Calif.) following manufacturer's instruction. Data were analyzed using GraphPad Prism 4 (GraphPad Software, San Diego, Calif.) and expressed as mean±SEM. One-way analysis of variance (ANOVA) with Dunnet post hoc test was performed for statistical difference for multiple groups. […] Data represent mean±SEM from 10 mice in each group. *, **, and *** indicate p<0.05, p<0.01, and p<0.001 significance. The ova s/c mice expressed higher levels of IFN-γ, IL-6, and IL-2 but the change was not significant in comparison to normal mice.

C[C@H]1N=C(c2ccccc2F)c2cc(Br)ccc2-n2cnc(C(=O)O)c21 [GL-II-93, (R)-8-bromo-6-(2-fluorophenyl)-4-methyl-4H-benzo[f]imidazo[1,5-a][1,4]diazepine-3-carboxylic acid]
level of IL-4 in the mouse lung: reduced the levels of IL-17, TNFα, and IL-4 | level of IL-17 in the mouse lung: reduced the levels of IL-17 | level of TNFα in the mouse lung: reduced the levels of IL-17, TNFα
